The results in this text go back to PMC4774911, “Biochemical Screening of Five Protein Kinases from Plasmodium falciparum against 14,000 Cell-Active Compounds” (PLoS ONE, 2016).

Where “and” joins values, the source holds several entries; their conditions need not be identical. Identical values can stand only once.

Common to all, as to assay: biochemical
Holding throughout (set-up): endogenous in cells; host or cells: K562 cell extract; species or system K562 (extract); replicate k of n = 2 (each experiment ID is one independent experiment; two experiment IDs per compound)
Conditions in all cases: read-out: KDapp

In assay [1] the target is T1, ACVR1 (Homo sapiens, UniProt Q04771).
T1 sequence (Q04771 1-509): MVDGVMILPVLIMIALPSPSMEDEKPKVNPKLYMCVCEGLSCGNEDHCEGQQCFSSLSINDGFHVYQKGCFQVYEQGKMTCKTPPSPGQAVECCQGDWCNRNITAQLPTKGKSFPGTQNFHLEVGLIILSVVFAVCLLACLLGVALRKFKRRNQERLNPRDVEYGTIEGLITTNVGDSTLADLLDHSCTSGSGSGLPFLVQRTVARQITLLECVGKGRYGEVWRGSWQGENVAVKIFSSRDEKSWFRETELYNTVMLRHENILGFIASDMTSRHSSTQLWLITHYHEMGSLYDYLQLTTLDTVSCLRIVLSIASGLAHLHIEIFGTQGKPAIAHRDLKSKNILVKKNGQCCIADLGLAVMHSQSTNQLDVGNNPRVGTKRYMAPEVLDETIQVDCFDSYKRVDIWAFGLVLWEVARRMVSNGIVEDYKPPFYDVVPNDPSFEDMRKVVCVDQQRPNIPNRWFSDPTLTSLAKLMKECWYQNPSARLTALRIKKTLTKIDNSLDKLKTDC

Assay [2] concerns the target T2, AURKA (Homo sapiens, UniProt O14965).
T2 sequence (O14965 1-403): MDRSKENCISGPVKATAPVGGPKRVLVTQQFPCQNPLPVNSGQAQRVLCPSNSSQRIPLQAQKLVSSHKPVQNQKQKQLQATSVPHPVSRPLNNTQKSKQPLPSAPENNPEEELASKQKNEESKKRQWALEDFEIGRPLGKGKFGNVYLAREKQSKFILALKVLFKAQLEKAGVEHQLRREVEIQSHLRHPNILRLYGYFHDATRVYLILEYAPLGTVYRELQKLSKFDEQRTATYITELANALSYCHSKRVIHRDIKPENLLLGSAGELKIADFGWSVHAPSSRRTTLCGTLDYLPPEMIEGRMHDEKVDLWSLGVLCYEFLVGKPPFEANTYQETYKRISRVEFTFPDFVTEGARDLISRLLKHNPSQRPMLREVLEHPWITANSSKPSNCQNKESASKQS

The target of assay [3] is BTK (Homo sapiens, UniProt Q06187).
For assay [4], the target named is NEK6 (Homo sapiens, UniProt Q9HC98).
The target in assay [5] is PIK3C3 (Homo sapiens, UniProt Q8NEB9).
In assay [6] the target is T3, TEC (Homo sapiens, UniProt P42680).
T3 sequence (P42680 1-631): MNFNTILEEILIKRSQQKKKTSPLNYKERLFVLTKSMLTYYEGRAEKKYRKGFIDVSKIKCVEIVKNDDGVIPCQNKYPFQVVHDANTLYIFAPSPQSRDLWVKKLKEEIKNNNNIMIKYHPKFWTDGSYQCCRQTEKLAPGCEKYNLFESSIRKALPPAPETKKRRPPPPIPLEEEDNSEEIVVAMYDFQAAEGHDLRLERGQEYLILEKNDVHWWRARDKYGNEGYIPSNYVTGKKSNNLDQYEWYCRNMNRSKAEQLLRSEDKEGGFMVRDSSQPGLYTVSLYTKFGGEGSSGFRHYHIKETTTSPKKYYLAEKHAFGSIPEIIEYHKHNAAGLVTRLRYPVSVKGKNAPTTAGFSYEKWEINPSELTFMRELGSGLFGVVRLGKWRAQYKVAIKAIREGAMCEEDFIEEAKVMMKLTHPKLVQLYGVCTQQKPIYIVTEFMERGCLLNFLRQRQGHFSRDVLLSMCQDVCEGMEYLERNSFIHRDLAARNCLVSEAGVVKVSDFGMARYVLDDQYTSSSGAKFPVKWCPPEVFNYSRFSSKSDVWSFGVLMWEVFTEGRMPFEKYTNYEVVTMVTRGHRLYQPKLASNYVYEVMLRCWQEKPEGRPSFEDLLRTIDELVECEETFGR

BTK, sequence (Q06187 whole entry): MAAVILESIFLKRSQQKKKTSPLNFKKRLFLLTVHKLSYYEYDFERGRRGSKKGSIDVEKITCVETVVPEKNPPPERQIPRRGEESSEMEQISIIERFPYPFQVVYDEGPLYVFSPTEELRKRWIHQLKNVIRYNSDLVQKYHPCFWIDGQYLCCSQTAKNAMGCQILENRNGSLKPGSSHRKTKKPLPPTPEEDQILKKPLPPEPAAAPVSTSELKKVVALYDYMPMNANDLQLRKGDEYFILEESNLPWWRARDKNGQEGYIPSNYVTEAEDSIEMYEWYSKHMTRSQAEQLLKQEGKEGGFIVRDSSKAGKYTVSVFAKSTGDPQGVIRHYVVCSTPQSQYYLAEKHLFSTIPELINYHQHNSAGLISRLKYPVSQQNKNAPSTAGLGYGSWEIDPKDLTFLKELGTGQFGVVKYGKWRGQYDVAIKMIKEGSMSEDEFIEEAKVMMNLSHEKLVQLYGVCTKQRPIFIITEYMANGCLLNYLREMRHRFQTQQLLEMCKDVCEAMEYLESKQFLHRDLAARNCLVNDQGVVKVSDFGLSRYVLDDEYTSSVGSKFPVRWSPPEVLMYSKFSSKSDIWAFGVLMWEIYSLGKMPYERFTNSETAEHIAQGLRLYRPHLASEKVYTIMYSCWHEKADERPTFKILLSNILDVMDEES
PIK3C3, sequence (Q8NEB9 whole entry): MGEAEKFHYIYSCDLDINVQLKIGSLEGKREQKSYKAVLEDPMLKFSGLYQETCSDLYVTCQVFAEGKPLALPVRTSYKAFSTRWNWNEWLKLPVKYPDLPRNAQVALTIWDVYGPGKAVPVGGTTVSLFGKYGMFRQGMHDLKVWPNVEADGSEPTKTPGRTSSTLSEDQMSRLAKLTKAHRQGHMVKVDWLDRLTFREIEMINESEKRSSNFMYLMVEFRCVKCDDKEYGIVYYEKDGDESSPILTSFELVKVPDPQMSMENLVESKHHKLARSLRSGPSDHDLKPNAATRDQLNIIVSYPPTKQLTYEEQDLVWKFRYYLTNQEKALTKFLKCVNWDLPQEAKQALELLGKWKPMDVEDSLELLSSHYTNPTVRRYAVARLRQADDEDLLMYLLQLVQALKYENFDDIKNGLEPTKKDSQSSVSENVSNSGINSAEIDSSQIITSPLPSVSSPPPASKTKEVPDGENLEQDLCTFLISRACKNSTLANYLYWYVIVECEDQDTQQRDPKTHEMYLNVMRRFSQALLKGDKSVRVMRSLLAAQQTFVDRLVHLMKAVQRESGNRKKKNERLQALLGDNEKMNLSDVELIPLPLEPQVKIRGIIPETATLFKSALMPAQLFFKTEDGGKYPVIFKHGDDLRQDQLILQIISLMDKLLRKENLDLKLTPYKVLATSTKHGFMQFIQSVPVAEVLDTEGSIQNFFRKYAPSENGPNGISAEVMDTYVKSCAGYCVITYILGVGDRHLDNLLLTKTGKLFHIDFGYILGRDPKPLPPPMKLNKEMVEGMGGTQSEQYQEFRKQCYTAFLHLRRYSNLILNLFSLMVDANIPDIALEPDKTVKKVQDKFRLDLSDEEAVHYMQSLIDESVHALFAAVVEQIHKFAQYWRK
NEK6, sequence (Q9HC98 whole entry): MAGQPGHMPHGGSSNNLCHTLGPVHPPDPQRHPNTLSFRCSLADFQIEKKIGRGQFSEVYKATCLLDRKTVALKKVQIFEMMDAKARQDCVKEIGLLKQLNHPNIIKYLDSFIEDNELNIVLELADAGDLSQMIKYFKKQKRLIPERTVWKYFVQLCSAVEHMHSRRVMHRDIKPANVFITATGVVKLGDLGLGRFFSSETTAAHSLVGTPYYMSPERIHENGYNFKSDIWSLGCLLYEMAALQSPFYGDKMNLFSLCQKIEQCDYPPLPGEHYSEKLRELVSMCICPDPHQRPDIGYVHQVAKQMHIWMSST

Consider `CN1CCN(c2ccc(Nc3ncc(C#N)c(Nc4ccccc4C(N)=O)n3)cc2)CC1.Cl` [TCMDC-134116], for which the Kd in assay [1] is 2200 nM; in assay [2], 12.3 nM; in assay [3], 207 nM and 231 nM; in assay [4], 160 nM; in assay [5] it was 957 nM; in assay [6] it was 137 nM and 146 nM.
